Assay results: patent US11020414B2, “Antimicrobial compositions with cysteamine” (priority 2010, dated 2021)
“And” between values parts separate entries of the source, which are not always exact repeats. Equal values may be shown once. Where a name gives a salt, the structure may show the parent alone. Read-outs that look alike come from different tables or passages of the source.

Legend:
[1] = test system: Pseudomonas aeruginosa Pa01; test: FIC index of combinations with conventional antibiotics, strain Pa01; type: cell-based; conditions: strain Pa01 (Col^R), hydrochloride
Description: (§1) The bacterial inoculum was established by the dilution method from actively-growing cultures in Mueller-Hinton (MH) broth, standardized with 0.5 McFarland turbidity standard as described in the CLSI method M26-A.
(§2) Both the bacterial inoculum and the antimicrobial agents, including the compounds structurally related to cysteamine, were added simultaneously to the plates. The plates were incubated at 37° C. for 24 h and the optical density was read at 625 nm on a microtitre plate reader (BioTek Powerwave XS, Winooski, USA). The MIC was obtained as the lowest concentration of antimicrobial showing total inhibition of bacterial growth.
(§3) The FIC corresponds to an interaction coefficient indicating whether the combination of antimicrobial agents is synergistic, additive, antagonist or neutral. The FIC is determined by comparing the activity of an agent in combination (MIC of agent A+agent B) with the activity of the agent alone (MIC of agent A or agent B) as follow (Singh et al., 2000): FIC=MICA[combination]/MICA[alone]+MICB[combination]/MICB[alone]
(§4) Additive combinations of two antimicrobial agents are indicated by a FIC index of 1, whereas a FIC index<1 indicates synergistic combinations. Neutral combinations would give a FIC between 1 and 4, a FIC index higher than 4 indicates antagonist effects between the two antimicrobial agents.
(§5) The FIC was also calculated to assess the interaction of two antimicrobial agents in combination against bacterial samples.

[2] = test system: Pseudomonas aeruginosa Pa14; test: FIC index of combinations with conventional antibiotics, strain Pa14; type: cell-based; conditions: strain Pa14 (Col^R), hydrochloride
Description: as §1, §2, §3, §4, §5

[3] = test system: Pseudomonas aeruginosa Pa058; test: FIC index of combinations with conventional antibiotics, strain Pa058; type: cell-based; conditions: strain Pa058 (Col^R, Cip^R Tob^R), hydrochloride
Description: as §1, §2, §3, §4, §5

[4] = test system: Pseudomonas aeruginosa Pa57388A; test: FIC index of combinations with conventional antibiotics, strain Pa57388A; type: cell-based; conditions: strain Pa57388A (Col^R), hydrochloride
Description: as §1, §2, §3, §4, §5

[5] = test system: Pseudomonas aeruginosa Pa57388D; test: FIC index of combinations with conventional antibiotics, strain Pa57388D; type: cell-based; conditions: strain Pa57388D (Col^R, Gent^R), hydrochloride
Description: as §1, §2, §3, §4, §5

P. aeruginosa ATCC 27853 = test: MIC and FIC of antibiotics with cysteamine, environments mimicking a CF lung; type: cell-based, Pseudomonas aeruginosa; conditions: for MIC upon administration with cysteamine compared to administration alone: environments mimicking those found in a CF lung; for antimicrobial effect in combination with cysteamine: mucolytic environment
Description: as §2, §3
The range of concentrations of antimicrobial agents was 0-10 μg/ml.

[6] = test system: Burkholderia cepacia NCTC10743; test: MIC100 and FIC of cysteamine and tobramycin, MH broth (CLSI) and artificial sputum medium; type: cell-based
Description: as §2, §3
(§6) The complex pathophysiology of CF is characterized by airway obstruction caused by abnormal mucus secretion and infection, with 60-80% of patients being chronically infected with the biofilm-forming bacteria Pseudomonas aeruginosa (George et al., 2009). With a prevalence of up to 10% in adult CF patients, B. cepacia complex is a rare but major concern due to its high virulence, morbidity and transmissibility (O'Malley, 2009; Brüssow, 2012). We tested the antimicrobial activity of cysteamine-tobramycin combinations in artificial sputum medium (Yang, et al., 2011) against 4 P. aeruginosa (PAO1, ATCC27853, DSMZ1128 and DSMZ1299) and 2 B. cepacia complex strains (NCTC10743 and NCTC10744).

[7] = test system: Burkholderia cepacia NCTC10744; test: as above; type: cell-based; conditions: read-out: MIC100, agent alone
Description: as §2, §3, §6

[8] = test system: P. aeruginosa PAO1 biofilm; test: Minimum biofilm eradication concentration against established biofilm (FIG. 4); type: cell-based, Pseudomonas aeruginosa
[9] = test system: 4 P. aeruginosa (PAO1, ATCC27853, DSMZ1128 and DSMZ1299) and 2 B. cepacia complex strains (NCTC10743 and NCTC10744); test: microbe, parasite or virus in culture; type: cell-based, Pseudomonas aeruginosa; Burkholderia cepacia complex; conditions: all strains
From the text: as §6

[10] = test system: P. aeruginosa PAO1 planktonic cells; test: MIC in physiologically-relevant ionic concentrations (FIG. 7); type: cell-based, Pseudomonas aeruginosa; conditions: in the presence of Ca2+ and in the presence of DNA
Description: Bacterial growth was followed over a 24 h period and absorbance read using a BioTek microtitre plate reader at 625 nm. Total bacterial growth inhibition was retained in the presence of NaCl, CaCl2 or DNA and at two-fold the normal MIC100 in the presence of mucin. Tobramycin activity was inhibited in the presence of the divalent cation ca^2+ and in the presence of the anionic polymer DNA. […] A similar method as described above (1.4) was used for the determination of the antimicrobial activity of cysteamine (Lynovex®) in the presence of high ionic concentrations. […] Bacterial growth was followed over a 24 h period and absorbance read using a BioTek microtitre plate reader at 625 nm.

[11] = in combination with Ciprofloxacin

## NCCS [Cysteamine Hydrochloride (Cyst HCl), Cysteamine hydrochloride]
[1]; [11]
  FICI (Additive) Cip: 0.75 and 0.52 and 0.56
[1]; in combination with Colistin
  FICI (Additive) Col: 0.5
[1]; in combination with Gentamicin
  FICI (Additive) Gent: 0.75 and 0.5
[1]; in combination with Tobramycin
  FICI (Additive) Tob: 0.51 and 0.53 and 0.5
  FICI (Synergy) Tob: 0.25 and 0.31 and 0.38 and 0.28 and 0.19
[2]; [11]
  FICI (Additive) Cip: 0.56 and 0.63 and 0.5
  FICI (Synergy) Cip: 0.31 and 0.37 and 0.38
[2]; in combination with Colistin
  FICI (Additive) Col: 0.51 and 0.5 and 0.53 and 0.52
[2]; in combination with Gentamicin
  FICI (Additive) Gent: 0.5 and 0.63 and 0.56
[2]; in combination with Tobramycin
  FICI (Additive) Tob: 0.63 and 0.75 and 0.5
[3]; [11]
  FICI (Additive) Cip: 0.53 and 0.63 and 0.75 and 0.56
[3]; in combination with Colistin
  FICI (Additive) Col: 0.52 and 0.75 and 0.56 and 0.5
  FICI (Synergy) Col: 0.38
[3]; in combination with Gentamicin
  FICI (Additive) Gent: 0.75
[4]; [11]
  FICI (Additive) Cip: 0.53 and 0.5 and 0.63 and 0.56 and 0.75
  FICI (Synergy) Cip: 0.19 and 0.25
[4]; in combination with Colistin
  FICI (Additive) Col: 0.53 and 0.52 and 0.5
  FICI (Synergy) Col: 0.25 and 0.31 and 0.19 and 0.26
[4]; in combination with Gentamicin
  FICI (Additive) Gent: 0.63
[4]; in combination with Tobramycin
  FICI (Additive) Tob: 0.63 and 0.75
[5]; [11]
  FICI (Additive) Cip: 0.56 and 0.53
  FICI (Synergy) Cip: 0.31 and 0.38
[5]; in combination with Colistin
  FICI (Additive) Col: 0.52 and 0.53
  FICI (Synergy) Col: 0.19 and 0.28 and 0.25 and 0.31
[5]; in combination with Gentamicin
  FICI (Additive) Gent: 0.53 and 0.52
[5]; in combination with Tobramycin
  FICI (Additive) Tob: 0.51 and 0.5
  FICI (Synergy) Tob: 0.25 and 0.31 and 0.19

## O=C(O)c1cn(C2CC2)c2cc(N3CCNCC3)c(F)cc2c1=O [Ciprofloxacin]
P. aeruginosa ATCC 27853
  MIC upon administration with cysteamine compared to administration alone: greatly reduced
  antimicrobial effect in combination with cysteamine: maintained

## NC[C@H]1O[C@H](O[C@H]2[C@H](O)[C@@H](O[C@H]3O[C@H](CO)[C@@H](O)[C@H](N)[C@H]3O)[C@H](N)C[C@@H]2N)[C@H](N)C[C@@H]1O [Tobramycin, reference compound]
[6]; NCTC10743, B. cepacia NCTC10743, FIG. 6, read-out: MIC100, agent alone
  MIC: > 16 µg/mL
[6]; NCTC10743, B. cepacia NCTC10743, in both media (MH broth and ASM), FIG. 11, read-out: MIC100, agent alone
  MIC: > 16 µg/mL
[6]; NCTC10743, B. cepacia NH10743, ASM (Artificial Sputum Medium), read-out: MIC100, agent alone
  MIC: > 16 µg/mL
[6]; NCTC10743, B. cepacia NH10743, CLSI, read-out: MIC100, agent alone
  MIC: > 16 µg/mL
[7]; NCTC10744, B. cepacia NH10744, ASM (Artificial Sputum Medium)
  MIC: > 16 µg/mL
[7]; NCTC10744, B. cepacia NH10744, CLSI
  MIC: > 16 µg/mL
[8]
  minimum biofilm eradication concentration (MBEC), agent alone: 4 µg/mL
[9]
  tobramycin activity in the presence of cysteamine: enhanced
[10]
  Tobramycin activity: inhibited
P. aeruginosa ATCC 27853
  MIC upon administration with cysteamine compared to administration alone: greatly reduced
  antimicrobial effect in combination with cysteamine: maintained
